Test results: publication PMC10267138, “A polyamine acetyltransferase regulates the motility and biofilm formation of Acinetobacter baumannii” (Nature Communications, 2023)

How the values were obtained:
[1] = molecular target: T1, SpeG (Escherichia coli, UniProt P0A951); experiment: DTNB acetylation assay; type: biochemical; settings: acetyl-CoA co-substrate 0.5 mM; substrate 5 mM; pH 8.0; 30 °C
T1 construct: his-tagged SpeG from pKK223.3, expressed in E. coli DJ624 delta-ara
T1 sequence (P0A951 2-186): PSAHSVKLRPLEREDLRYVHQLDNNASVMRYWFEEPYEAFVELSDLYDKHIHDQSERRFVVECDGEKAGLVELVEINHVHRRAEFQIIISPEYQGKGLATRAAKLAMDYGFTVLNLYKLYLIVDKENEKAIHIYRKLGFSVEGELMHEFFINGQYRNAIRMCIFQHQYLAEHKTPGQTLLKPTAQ

[2] = molecular target: his-Dpa (A. baumannii diaminopropane acetyltransferase Dpa, wild type) (Acinetobacter baumannii); experiment: crystal structure; his-Dpa at 10 mg/ml crystallised with 0.1 mM acetyl-CoA; 0.2 M sodium acetate, 0.1 M Tris-HCl pH 8.5, 30% PEG 4000, 20 °C
[3] = molecular target: his-Dpa (A. baumannii diaminopropane acetyltransferase Dpa, wild type) (Acinetobacter baumannii); experiment: SEC; analytic SEC on Superdex75 increase, 50 mM Tris-HCl pH 8, 250 mM NaCl; 500 μL of 20 μM protein injected; where indicated pre-incubated with 5-fold molar excess of acCoA and/or 1,3-DAP
[4] = molecular target: his-Dpa_(Y128F) (catalytically impaired Dpa) (Acinetobacter baumannii); experiment: crystal structure
[5] = molecular target: T2, Dpa (Acinetobacter baumannii, UniProt V5VBK4); experiment: X-ray crystal structure; type: binding; settings: crystallised with 0.1 mM acetyl-CoA, pH 8.5
T2 construct: gene ABR2091_2278; his-tagged Dpa from pKK223.3, expressed in E. coli DJ624 delta-ara; C-terminal beta-strand swapped dimer

## NCCCCNCCCN [spermidine]
[1]
  DTNB acetylation assay: SpeG acetylated the long polyamines Spermine and Spermidine

## his-Dpa (A. baumannii diaminopropane acetyltransferase Dpa, wild type) (enzyme)
[2]
  stoichiometry N: 2
[3]
  stoichiometry N: 2

## his-Dpa_(Y128F) (catalytically impaired Dpa) (enzyme)
[4]
  stoichiometry N: 2

## NCCCNCCCCNCCCN [spermine]
[1]
  DTNB acetylation assay: SpeG acetylated the long polyamines Spermine and Spermidine

## CC(=O)SCCNC(=O)CCNC(=O)[C@H](O)C(C)(C)COP(=O)(O)OP(=O)(O)OC[C@H]1O[C@@H](n2cnc3c(N)ncnc32)[C@H](O)[C@@H]1OP(=O)(O)O [acetyl-CoA]
[5]
  X-ray crystal structure: we determined the structure of Dpa bound to acCoA
